Reference: patent US20260256792A1, “TREATMENT OF CHRONIC SPONTANEOUS URTICARIA BY ADMINISTERING (R)-2-[3-[4-AMINO-3-(2-FLUORO-4-PHENOXY-PHENYL)PYRAZOLO[3,4-D]PYRIMIDIN-1-YL]PIPERIDINE-1-CARBONYL]-4-METHYL-4-[4-(OXETAN-3-YL)PIPERAZIN-1-YL]PENT-2-ENENITRILE” (priority 2023, published 2026)

Tested on: moderate-to-severe chronic spontaneous urticaria (CSU)
Experiment: Phase 2 CSU study: urticaria activity score over 7 days (UAS7)
Assay type: in vivo, human
Conditions: Omalizumab-naïve
Text: The study comprises a 12 week, randomized, double-blind, placebo-controlled, multi-center, dose-ranging efficacy and safety phase, followed by a 40 week open label extension (OLE) phase (see FIG. 1). The study consists of three phases and an optional OLE phase. […] Clinically, CSU is characterized by the spontaneous and recurrent appearance of pruritic hives. The proposed primary endpoints were the UAS7 at Week 12 in EU and EU reference countries and the ISS7 in the US. Regardless of where a participant was from, all assessments were the same. The UAS7 score is a composite score containing both the HSS7 and the ISS7. This allowed a global assessment of the two key components of urticaria: hives and itch. […] The UAS is a validated PRO measure. […] The daily UAS scores range from 0 to 6 point/day. […] Patients were to complete the UAS using the e-diary. […] The following secondary endpoints were to be analyzed using the same approach as for the primary endpoint: • Change from baseline in UAS7 at Week 4 • Change from baseline in UAS7 at Week 12 (for US and US reference countries) • Change from baseline in ISS7 at Week 12 (except US and US reference countries) • Change from baseline in HSS7 at Week 12 The following responder secondary endpoints were to be analyzed using the Cochran-Mantel-Haenszel test adjusted by region: • Proportion of participants with UAS7<6 at Week 12 • Proportion of participants with UAS7=0 at Week 12 Participants who received selected prohibited medications and/or rescue medications were to be considered as non-responders for time points after the medication usage. For other participants, all available data including those collected during the off-treatment period were to be used to determine the responder/non-responder status. Missing data were to be considered as non-responders.

## CC(C)(C=C(C#N)C(=O)N1CCC[C@@H](n2nc(-c3ccc(Oc4ccccc4)cc3F)c3c(N)ncnc32)C1)N1CCN(C2COC2)CC1 [rilzabrutinib, (R)-2-[3-[4-amino-3-(2-fluoro-4-phenoxy-phenyl)pyrazolo[3,4-d]pyrimidin-1-yl]piperidine-1-carbonyl]-4-methyl-4-[4-(oxetan-3-yl)piperazin-1-yl]pent-2-enenitrile]
400 mg BID, Week 6
  RRD (%) for rilzabrutinib vs. placebo, UAS7 = 0: 7.6 %
  RRD (%) for rilzabrutinib vs. placebo, UAS7 ≤6: 8.8 %
  Responder n (%), UAS7 = 0: 4 (11.4) n (%)
  Responder n (%), UAS7 ≤6: 9 (25.7) n (%)
400 mg BID, Week 7
  Imputed non-responder n (%), UAS7 = 0: 2 (5.7) n (%)
  Imputed non-responder n (%), UAS7 ≤6: 2 (5.7) n (%)
  Non-responder n (%), UAS7 = 0: 31 (88.6) n (%)
  Non-responder n (%), UAS7 ≤6: 26 (74.3) n (%)
  OR for rilzabrutinib vs. placebo, UAS7 = 0: 4.254
  OR for rilzabrutinib vs. placebo, UAS7 ≤6: 2.622
  RRD (%) for rilzabrutinib vs. placebo, UAS7 = 0: 8.1 %
  RRD (%) for rilzabrutinib vs. placebo, UAS7 ≤6: 13.6 %
  Responder n (%), UAS7 = 0: 4 (11.4) n (%)
  Responder n (%), UAS7 ≤6: 9 (25.7) n (%)
400 mg BID, Week 8
  Imputed non-responder n (%), UAS7 = 0: 3 (8.6) n (%)
  Imputed non-responder n (%), UAS7 ≤6: 3 (8.6) n (%)
  Non-responder n (%), UAS7 = 0: 29 (82.9) n (%)
  Non-responder n (%), UAS7 ≤6: 22 (62.9) n (%)
  OR for rilzabrutinib vs. placebo, UAS7 = 0: 3.154
  OR for rilzabrutinib vs. placebo, UAS7 ≤6: 2.745
  RRD (%) for rilzabrutinib vs. placebo, UAS7 = 0: 10.7 %
  RRD (%) for rilzabrutinib vs. placebo, UAS7 ≤6: 18.5 %
  Responder n (%), UAS7 = 0: 6 (17.1) n (%)
  Responder n (%), UAS7 ≤6: 13 (37.1) n (%)
400 mg BID, Week 9
  Imputed non-responder n (%), UAS7 = 0: 7 (20.0) n (%)
  Imputed non-responder n (%), UAS7 ≤6: 7 (20.0) n (%)
  Non-responder n (%), UAS7 = 0: 29 (82.9) n (%)
  Non-responder n (%), UAS7 ≤6: 25 (71.4) n (%)
  OR for rilzabrutinib vs. placebo, UAS7 = 0: 2.249
  OR for rilzabrutinib vs. placebo, UAS7 ≤6: 2.797
  RRD (%) for rilzabrutinib vs. placebo, UAS7 = 0: 8.4 %
  RRD (%) for rilzabrutinib vs. placebo, UAS7 ≤6: 15.6 %
  Responder n (%), UAS7 = 0: 6 (17.1) n (%)
  Responder n (%), UAS7 ≤6: 10 (28.6) n (%)
400 mg BID, Week 10
  Imputed non-responder n (%), UAS7 = 0: 8 (22.9) n (%)
  Imputed non-responder n (%), UAS7 ≤6: 8 (22.9) n (%)
  Non-responder n (%), UAS7 = 0: 27 (77.1) n (%)
  Non-responder n (%), UAS7 ≤6: 26 (74.3) n (%)
  OR for rilzabrutinib vs. placebo, UAS7 = 0: 2.159
  OR for rilzabrutinib vs. placebo, UAS7 ≤6: 1.923
  RRD (%) for rilzabrutinib vs. placebo, UAS7 = 0: 10.6 %
  RRD (%) for rilzabrutinib vs. placebo, UAS7 ≤6: 9.9 %
  Responder n (%), UAS7 = 0: 8 (22.9) n (%)
  Responder n (%), UAS7 ≤6: 9 (25.7) n (%)
400 mg BID, Week 11
  Imputed non-responder n (%), UAS7 = 0: 7 (20.0) n (%)
  Imputed non-responder n (%), UAS7 ≤6: 7 (20.0) n (%)
  Non-responder n (%), UAS7 = 0: 30 (85.7) n (%)
  Non-responder n (%), UAS7 ≤6: 25 (71.4) n (%)
  OR for rilzabrutinib vs. placebo, UAS7 = 0: 2.551
  OR for rilzabrutinib vs. placebo, UAS7 ≤6: 1.853
  RRD (%) for rilzabrutinib vs. placebo, UAS7 = 0: 7.4 %
  Responder n (%), UAS7 = 0: 5 (14.3) n (%)
  Responder n (%), UAS7 ≤6: 10 (28.6) n (%)
400 mg BID, Week 12
  Imputed non-responder n (%), UAS7 = 0: 11 (31.4) n (%)
  Imputed non-responder n (%), UAS7 ≤6: 11 (31.4) n (%)
  Non-responder n (%), UAS7 = 0: 30 (85.7) n (%)
  Non-responder n (%), UAS7 ≤6: 28 (80.0) n (%)
  OR for rilzabrutinib vs. placebo, UAS7 = 0: 1.258
  OR for rilzabrutinib vs. placebo, UAS7 ≤6: 1.904
  RRD (%) for rilzabrutinib vs. placebo, UAS7 = 0: 2.6 %
  RRD (%) for rilzabrutinib vs. placebo, UAS7 ≤6: 7.9 %
  Responder n (%), UAS7 = 0: 5 (14.3) n (%)
  Responder n (%), UAS7 ≤6: 7 (20.0) n (%)
400 mg QPM, Week 1
  Imputed non-responder n (%), UAS7 = 0: 0 n (%)
  Imputed non-responder n (%), UAS7 ≤6: 0 n (%)
  Non-responder n (%), UAS7 = 0: 37 (100) n (%)
